Measured values: patent publication US5807819A, “Peptides useful for altering bone resorption” (priority 1995, dated 1998)
Where a SMILES comes first, the peptide text is derived from it. Bridges are numbered along the chain shown (N, C = ends). [ ]: non-standard residue; d: D form. Tic = O=C(O)[C@@H]1Cc2ccccc2CN1; Pen = CC(C)(S)[C@H](N)C(=O)O; Mpa = O=C(O)CCS

Experiments:
[1] = tested on: αV β3 integrin receptor; experiment: Series of in vitro assays of Example II for potency and selectivity (FIG. 2); conditions: for receptor selectivity classification / potency classification: summary of assays; for activity (FIG. 2): minimal-element peptides
Description: Such peptides can include, for example, peptides within the pharmacophore groups exemplified herein or peptides within other pharmacophore groups. […] The selectivity of a peptide for an integrin receptor involved in osteoclast binding to bone can be determined, for example, using the integrin receptor assays and cell attachment and detachment assays described herein.
Comparison of the IC50 values generated using the JY cell assay and the αV β3 ELISA, which measure binding of the αV β3 receptor involved in osteoclast binding to bone, with the αV β5 and α5 β1 receptor-specific ELISAs, which represent receptors that likely are not involved in osteoclast attachment, provides insight into the receptor selectivity of the peptides.

[2] = tested on: platelet αIIb β3 integrin receptor; experiment: Platelet aggregation assay; type: cell-based; conditions: ADP-induced, platelet-rich plasma from heparinized blood; read-out: IC50 inhibiting platelet aggregation
Description: This example provides a method for performing a platelet aggregation assay, which is a measure of peptide binding to the platelet αIIb β3 integrin receptor.
Platelet-rich plasma (PRP) was prepared fresh from heparinized whole blood. 0.6 ml PRP was placed in a 1.5 ml microcentrifuge tube and centrifuged for 4 min at 14,000×g. Following centrifugation, 0.5 ml supernatant (platelet poor plasma; PPP) was transferred to a 1 ml silicon coated aggregometer tube (Chrono-Log Corp.; Havertown Pa.) and placed in the PPP slot of a Chrono-Log Model 400VS aggregometer (see Tschopp et al., Thromb. Haem. 72:119-124 (1994), which is incorporated herein by reference).
Platelet concentration of the PRP sample was determined using a cell counter and the sample was diluted with homologous PPP to obtain 300,000 platelets/μl. 0.5 ml of the diluted PRP was placed in an aggregometer tube with a stir bar and incubated for 5 min at 37° C. without stirring. The tube was transferred to the PRP slot in the aggregometer and the sample was stirred at 1200 rpm for 5-10 min at 37° C. […]
Platelet aggregation was initiated by adding adenosine diphosphate (ADP) to a concentration of 10 μM. Platelet aggregation was measured in 2 mm units from baseline (before ADP addition) to response at two min from the time of ADP addition or maximal response (if before 2 min), whichever is larger. […]

[3] = Parathyroid hormone-induced hypercalcemia in mice; type: in vivo, Swiss-Webster mice; conditions: parathyroidectomized mice, 4 hr i.v. peptide infusion, FIG. 9
Description: Parathyroid hormone (PTH) activates osteoclasts, which are involved in bone resorption. Associated with the increased osteoclast activity is an increase in serum calcium. The PTH-induced hypercalcemia assay measures the level of serum calcium, which is an indication of bone resorption in a subject (Fischer et al., Endocrinology 132:1411-1413 (1993), which is incorporated herein by reference).
Swiss-Webster mice, which had been parathyroidectomized two weeks prior to beginning the assay, were obtained from Taconic Lab Animals and Services (Germantown N.Y.). Femoral vein catheters (PE-50 fused with PE10 polyethylene tubing; Becton Dickinson; Parsippany, N.J.) were installed in the mice, flushed and locked with heparinized saline (1:10), sutured to adjacent muscle and internalized within the inguinal space of the incision before closing the incision with wound clips. […]
The experiment was initiated by feeding the mice a calcium-deficient diet overnight, then injecting the mice the following morning with a bolus of 0.2 mg PTH/kg (hPTH 1-34; Bachem; Torrance Calif.), intravenously. […] Various doses of a peptide or vehicle were infused into an animal for 4 hr, then ionized serum calcium again was measured. […] Serum calcium measurements were expressed as the difference between the value 30 min before the PTH pulse and 4 hr after peptide infusion was started. […]

[4] = tested on: chick osteoclasts; experiment: Chick cell detachment assay (osteoclasts vs total cells); type: cell-based; conditions: FIG. 5, serum-coated plates
Description: Peptides were evaluated for their ability to detach osteoclasts from a matrix consisting of serum-coated microtiter plates.
Briefly, chick long bones (femur and tibia) were dissected free of soft tissue and minced in prewarmed minimum essential medium (MEM, pH 7.2; Irvine Scientific; Irvine, Calif.) with Earl's salts, supplemented with 10% heat-inactivated fetal calf serum (FCS) and 200 mM glutamine and containing 100 μg/ml streptomycin and 100 IU/ml penicillin. Cells were removed from bone fragments by vigorous shaking in a capped centrifuge tube. Large particulate material was allowed to settle prior to removal of the cell suspension. After repeated agitation of the cells with a large transfer pipette, 100 μl aliquots of cells were added in triplicate to Corning 96 well microtiter plates that had been preincubated for 1 hr with 100 μl of MEM/FCS media.
The cells were incubated for 90 min at 37° C. in an atmosphere containing 10% CO2. Following incubation, the cell layers were carefully washed 2× with 200 μl sterile PBS, then 100 μl of fresh MEM/FCS was added. Peptides were diluted in the same medium and added to each well. The cells were incubated overnight as described above. […] 5 min using 0.1% crystal violet and multinucleated osteoclasts were counted by light microscopy. […]

[5] = tested on: rat osteoclasts; experiment: Rat osteoclast attachment assay compared with MG63/NRK cell attachment; type: cell-based; conditions: FIGS. 7 and 8, FCS substrate
Description: To determine the effect of a peptide on the attachment of rat osteoclasts in vitro, 100 μl aliquots of the rat pup bone cell suspension described in Example II.B.2., above, were added in triplicate to 96 well "MAXISORP" plates coated with specific substrates or with FCS. Substrate coated plates were used to determine the ability of peptides to inhibit attachment or induce detachment of an osteoclast from a ligand such as vitronectin, fibronectin, osteopontin or collagen I (Collaborative Research), which are ligands present in bone. Substrates were added to 96 well plates (50 μl of a 5-10 μg/ml solution in sodium carbonate, pH 9.5) and incubated for 2 hr at 37° C. For FCS control wells, 100 μl 10% FCS was added. Wells were aspirated, then washed 2× with PBS and blocked with 1% bovine serum albumin in PBS for 2 hr at 37° C. Wells were aspirated and washed again 2× with PBS. Cells were seeded in duplicate at 4×10^4 cells/well. […]
Following incubation, the medium and nonadherent cells were removed by aspiration from each well. […] Adherent osteoclasts were counted by light microscopy. […]
MG63 and NRK cell lines were purchased from ATTC (Rockville Md.). […] Following staining, the stain was extracted with 20% acetic acid and the OD562 of the extracted stain was determined. […]
Selectivity of a peptide can be determined by comparing the results of FIGS. 7 and 8 (see, also FIG. 2).

[6] = tested on: αV β3 integrin receptor; conditions: rabbit, in vivo; cited from earlier work

Question: With `CC(=O)N[C@H]1CSSC(C)(C)[C@@H](C(N)=O)NC(=O)[C@@H]2CCCN2C(=O)[C@H](CC(N)=O)NC(=O)[C@H](CC(=O)O)NC(=O)CNC(=O)[C@H](CCCNC(=N)N)NC1=O` [compound 228] (Ac-CRGDNP[Pen]-NH2; disulfide 1-7) as the compound, how does the receptor selectivity classification [1] read?
Answer: particularly receptor selective

Question: With `CC(=O)N[C@@H]1C(=O)N[C@@H](Cc2ccccc2)C(=O)N[C@@H](C)C(=O)N[C@@H](CCCNC(=N)N)C(=O)NCC(=O)N[C@@H](CC(=O)O)C(=O)N[C@@H](CC(N)=O)C(=O)N2CCC[C@H]2C(=O)N[C@H](C(N)=O)CSSC1(C)C` [peptide 214] (Ac-[Pen]FARGDNPC-NH2; disulfide 1-9) as the compound, how does the potency classification [1] read?
Answer: particularly potent

Question: With `COc1ccc(C[C@@H]2NC(=O)[C@H](CC(=O)O)NC(=O)CNC(=O)[C@H](CCCNC(=N)N)NC(=O)CC[C@@H](C(N)=O)NC(=O)[C@H](CCCNC(=N)N)NC2=O)cc1` [compound 940, RGD(YOMe)RE-NH2] as the compound, how does the IC50 [2] read?
Answer: 820 nM

Question: For `CC(C)[C@@H]1NC(=O)[C@H](CC(=O)O)NC(=O)[C@H](CC(=O)O)NC(=O)CNC(=O)[C@H](CCCNC(=N)N)NC(=O)CCSSC[C@@H](C(N)=O)NC1=O` [compound 191] ([Mpa]RGDDVC-NH2; disulfide 1-7), which “PTH-induced rise in serum ionized calcium” value [3] is on record?
Answer: decreased the PTH-induced rise in serum ionized calcium in a dose responsive manner

Question: With `CC(C)[C@@H]1NC(=O)[C@H](CC(=O)O)NC(=O)[C@H](CC(=O)O)NC(=O)CNC(=O)[C@H](CCCNC(=N)N)NC(=O)CC[C@@H](C(N)=O)NC1=O` [peptide 386, RGDDVE-NH2] (RGDDVE-NH2; lactam N-6) as the compound, how does the “selective detachment of osteoclasts compared to other cell types” value [4] read?
Answer: caused selective detachment of osteoclasts as compared to other cell types

Question: What about the “PTH-induced rise in serum ionized calcium” value [3] of the same compound?
Answer: relatively low level of serum calcium

Question: And the “selectivity: osteoclast attachment versus MG63 or NRK attachment” value [5]?
Answer: highly active on osteoclast attachment but were less active on MG63 or NRK attachment

Question: What about the “activity (FIG. 2)” value [1] of the same compound?
Answer: demonstrate activity

Question: And the receptor selectivity classification [1]?
Answer: particularly receptor selective

Question: For G(Pen)GRGDSPCA, which neointimal hyperplasia [6] is on record?
Answer: can inhibit neointimal hyperplasia

Question: For `CC(=O)N[C@H]1CSSC[C@@H](C(N)=O)NC(=O)[C@@H]2Cc3ccccc3CN2C(=O)[C@H](CO)NC(=O)[C@H](CC(=O)O)NC(=O)CNC(=O)[C@H](CCCNC(=N)N)NC1=O` [compound 812, Ac-CRGDS(Tic)C-NH2] (Ac-CRGDS[Tic]C-NH2; disulfide 1-7), which “activity (FIG. 2)” value [1] is on record?
Answer: demonstrate activity

Question: What about the potency classification [1] of the same compound?
Answer: particularly potent
